Laboratory results published in ChEMBL document CHEMBL1145206, “Design, synthesis and structure-activity relationships of novel taxane-based multidrug resistance reversal agents” (2005).

Each compound was assayed on MDA-MB-435 (assay: MDR-reversal activity evaluated against the resistant human breast tumor cell line MDA-435/LCC6-MDR).
Assay type: functional
Design: concentration or dose not given beside the values

**Q.** How did the Reduction turn out when `COc1cccc(C(=O)O[C@H]2[C@@H]3[C@]4(OC(C)=O)CO[C@@H]4C[C@H](OC(=O)/C=C/c4ccc(C(=O)c5ccccc5)cc4)[C@@]3(C)C(=O)[C@H](OC(C)=O)C3=C(C)[C@@H](OC(C)=O)C[C@]2(O)C3(C)C)c1` was run?
**A.** 95%

**Q.** For `CC(=O)O[C@H]1C(=O)[C@]2(C)[C@@H](OC(=O)COc3cccc4ccccc34)C[C@H]3OC[C@@]3(OC(C)=O)[C@H]2[C@H](OC(=O)c2ccccc2)[C@]2(O)C[C@H](OC(C)=O)C(C)=C1C2(C)C`, which Reduction is on record?
**A.** 60%

**Q.** `CC(=O)O[C@H]1C(=O)[C@]2(C)[C@@H](OC(=O)/C=C/c3ccc(C(=O)c4ccc(F)cc4)cc3)C[C@H]3OC[C@@]3(OC(C)=O)[C@H]2[C@H](OC(=O)c2ccccc2)[C@]2(O)C[C@H](OC(C)=O)C(C)=C1C2(C)C` was tested. Which Reduction did it give?
**A.** 92%

**Q.** `CC(=O)O[C@H]1C(=O)[C@]2(C)[C@@H](OC(=O)/C=C/c3ccc(C(=O)Oc4ccccc4)cc3)C[C@H]3OC[C@@]3(OC(C)=O)[C@H]2[C@H](OC(=O)c2ccccc2)[C@]23OC(=O)O[C@H]2[C@H](OC(C)=O)C(C)=C1C3(C)C` was tested. Which Reduction did it give?
**A.** 84%

**Q.** `CC(=O)O[C@@]12CO[C@@H]1C[C@H](O)[C@@]1(C)C(=O)[C@H](O)C3=C(C)[C@@H](OC(=O)/C=C/c4ccc(C(=O)c5ccccc5)cc4)C[C@@](O)([C@@H](OC(=O)c4ccccc4)[C@H]21)C3(C)C` was tested. Which Reduction did it give?
**A.** 0%

**Q.** For `CC(=O)O[C@H]1C(=O)[C@]2(C)[C@@H](OC(=O)/C=C/c3ccc4c(c3)C(=O)c3ccccc3-4)C[C@H]3OC[C@@]3(OC(C)=O)[C@H]2[C@H](OC(=O)c2ccccc2)[C@]2(O)C[C@H](OC(C)=O)C(C)=C1C2(C)C`, which Reduction is on record?
**A.** 91%

**Q.** Which Reduction does the source give for `CC(=O)O[C@H]1C(=O)[C@]2(C)[C@@H](OC(=O)/C=C/c3ccc(Sc4ccccc4)cc3)C[C@H]3OC[C@@]3(OC(C)=O)[C@H]2[C@H](OC(=O)c2ccccc2)[C@]2(O)C[C@H](OC(C)=O)C(C)=C1C2(C)C` here?
**A.** 64%

**Q.** With `CC(=O)O[C@H]1C(=O)[C@]2(C)[C@@H](OC(=O)CCc3ccc(C(O)c4ccccc4)cc3)C[C@H]3OC[C@@]3(OC(C)=O)[C@H]2[C@H](OC(=O)c2ccccc2)[C@]2(O)C[C@H](OC(C)=O)C(C)=C1C2(C)C` (stereo partly drawn) as the compound, how does the Reduction read?
**A.** 48%

**Q.** Which Reduction does the source give for `CC(=O)O[C@H]1C(=O)[C@]2(C)[C@@H](OC(=O)Cn3ccc4ccccc43)C[C@H]3OC[C@@]3(OC(C)=O)[C@H]2[C@H](OC(=O)c2ccccc2)[C@]2(O)C[C@H](OC(C)=O)C(C)=C1C2(C)C` here?
**A.** 83%

**Q.** `CC(=O)O[C@H]1C(=O)[C@]2(C)[C@@H](OC(=O)c3cnc4ccccc4c3)C[C@H]3OC[C@@]3(OC(C)=O)[C@H]2[C@H](OC(=O)c2ccccc2)[C@]2(O)C[C@H](OC(C)=O)C(C)=C1C2(C)C` was tested. Which Reduction did it give?
**A.** 41%

**Q.** Which Reduction does the source give for `CC(=O)O[C@H]1C(=O)[C@]2(C)[C@@H](OC(=O)Cc3ccc(C(=O)c4ccccc4)cc3)C[C@H]3OC[C@@]3(OC(C)=O)[C@H]2[C@H](OC(=O)c2ccccc2)[C@]2(O)C[C@H](OC(C)=O)C(C)=C1C2(C)C` here?
**A.** 41%

**Q.** For `CC(=O)O[C@H]1C(=O)[C@]2(C)[C@@H](OC(=O)CCc3c(F)c(F)c(F)c(F)c3F)C[C@H]3OC[C@@]3(OC(C)=O)[C@H]2[C@H](OC(=O)c2ccccc2)[C@]2(O)C[C@H](OC(C)=O)C(C)=C1C2(C)C`, which Reduction is on record?
**A.** 59%

**Q.** For `CC(=O)O[C@H]1C(=O)[C@]2(C)[C@@H](OC(=O)/C=C/c3ccc(OC(=O)c4cccs4)cc3)C[C@H]3OC[C@@]3(OC(C)=O)[C@H]2[C@H](OC(=O)c2ccccc2)[C@]23OC(=O)O[C@H]2[C@H](OC(C)=O)C(C)=C1C3(C)C`, which Reduction is on record?
**A.** 55%

**Q.** With `CC(=O)O[C@H]1C(=O)[C@]2(C)[C@@H](OC(=O)c3ccc(C(=O)c4ccccc4)cc3)C[C@H]3OC[C@@]3(OC(C)=O)[C@H]2[C@H](OC(=O)c2ccccc2)[C@]2(O)C[C@H](OC(C)=O)C(C)=C1C2(C)C` as the compound, how does the Reduction read?
**A.** 88%

**Q.** How did the Reduction turn out when `C=C(c1ccccc1)c1cccc(/C=C/C(=O)O[C@H]2C[C@H]3OC[C@@]3(OC(C)=O)[C@H]3[C@H](OCc4ccccc4)[C@]4(O)C[C@H](OC(C)=O)C(C)=C([C@@H](OC(C)=O)C(=O)[C@]23C)C4(C)C)c1` was run?
**A.** 52%

**Q.** Which Reduction does the source give for `CC(=O)O[C@H]1C[C@@]2(O)[C@@H](OC(=O)c3ccccc3)[C@@H]3[C@]4(OC(C)=O)CO[C@@H]4C[C@H](OC(C)=O)[C@@]3(C)C(=O)[C@H](OC(=O)/C=C/c3ccc(OC(=O)c4ccccc4)cc3)C(=C1C)C2(C)C` here?
**A.** 7%

**Q.** With `CC(=O)O[C@H]1C[C@@]2(O)[C@@H](OC(=O)c3ccccc3)[C@@H]3[C@]4(OC(C)=O)CO[C@@H]4C[C@H](OC(=O)/C=C/c4ccc(C(=O)c5ccccc5)cc4)[C@@]3(C)C(=O)[C@H](OC(=O)/C=C/c3ccccc3)C(=C1C)C2(C)C` as the compound, how does the Reduction read?
**A.** 11%

**Q.** For `CC(=O)O[C@H]1C(=O)[C@]2(C)[C@@H](OC(=O)/C=C/c3ccc(Oc4ccccc4)cc3)C[C@H]3OC[C@@]3(OC(C)=O)[C@H]2[C@H](OC(=O)c2ccccc2)[C@]23OC(=O)O[C@H]2[C@H](OC(C)=O)C(C)=C1C3(C)C`, which Reduction is on record?
**A.** 90%

**Q.** `CC(=O)O[C@H]1C(=O)[C@]2(C)[C@@H](OC(=O)/C=C/c3ccc(OC(=O)c4ccc([N+](=O)[O-])cc4)cc3)C[C@H]3OC[C@@]3(OC(C)=O)[C@H]2[C@H](OC(=O)c2ccccc2)[C@]23OC(=O)O[C@H]2[C@H](OC(C)=O)C(C)=C1C3(C)C` was tested. Which Reduction did it give?
**A.** 27%

**Q.** `COC(=O)O[C@H]1C(=O)[C@]2(C)[C@@H](OC(=O)/C=C/c3ccc(C(=O)c4ccccc4)cc3)C[C@H]3OC[C@@]3(OC(C)=O)[C@H]2[C@H](OC(=O)c2ccccc2)[C@]2(O)C[C@H](OC(C)=O)C(C)=C1C2(C)C` was tested. Which Reduction did it give?
**A.** 91%

**Q.** With `COc1cccc(C(=O)Oc2ccc(/C=C/C(=O)O[C@H]3C[C@H]4OC[C@@]4(OC(C)=O)[C@H]4[C@H](OC(=O)c5ccccc5)[C@]56OC(=O)O[C@H]5[C@H](OC(C)=O)C(C)=C([C@@H](OC(C)=O)C(=O)[C@]34C)C6(C)C)cc2)c1` as the compound, how does the Reduction read?
**A.** 62%

**Q.** For `CC(=O)O[C@H]1C(=O)[C@]2(C)[C@@H](OC(=O)CCCCc3ccc(C(=O)c4ccccc4)cc3)C[C@H]3OC[C@@]3(OC(C)=O)[C@H]2[C@H](OC(=O)c2ccccc2)[C@]23OC(=O)O[C@H]2[C@H](OC(C)=O)C(C)=C1C3(C)C`, which Reduction is on record?
**A.** 0%

**Q.** How did the Reduction turn out when `CC(=O)O[C@H]1C(=O)[C@]2(C)[C@@H](OC(=O)CC3c4ccccc4-c4ccccc43)C[C@H]3OC[C@@]3(OC(C)=O)[C@H]2[C@H](OC(=O)c2ccccc2)[C@]2(O)C[C@H](OC(C)=O)C(C)=C1C2(C)C` was run?
**A.** 67%

**Q.** With `CC(=O)O[C@H]1C(=O)[C@]2(C)[C@@H](OC(=O)/C=C/c3ccc(OC(=O)c4ccc5ccccc5c4)cc3)C[C@H]3OC[C@@]3(OC(C)=O)[C@H]2[C@H](OC(=O)c2ccccc2)[C@]2(O)C[C@H](OC(C)=O)C(C)=C1C2(C)C` as the compound, how does the Reduction read?
**A.** 29%

**Q.** How did the Reduction turn out when `CC(=O)O[C@H]1C(=O)[C@]2(C)[C@@H](OC(=O)c3ccc(C(=O)c4ccccc4)cc3)C[C@H]3OC[C@@]3(OC(C)=O)[C@H]2[C@H](OC(=O)c2ccccc2)[C@]23OC(=O)O[C@H]2[C@H](OC(C)=O)C(C)=C1C3(C)C` was run?
**A.** 92%

**Q.** For `CC(=O)O[C@H]1C(=O)[C@]2(C)[C@@H](OC(=O)Cc3ccc(C(=O)c4ccccc4)cc3)C[C@H]3OC[C@@]3(OC(C)=O)[C@H]2[C@H](OC(=O)c2ccccc2)[C@]23OC(=O)O[C@H]2[C@H](OC(C)=O)C(C)=C1C3(C)C`, which Reduction is on record?
**A.** 44%

**Q.** For `CC(=O)O[C@H]1C(=O)[C@]2(C)[C@@H](OC(=O)Cc3ccc(-c4ccccc4)cc3)C[C@H]3OC[C@@]3(OC(C)=O)[C@H]2[C@H](OC(=O)c2ccccc2)[C@]2(O)C[C@H](OC(C)=O)C(C)=C1C2(C)C`, which Reduction is on record?
**A.** 57%

**Q.** Which Reduction does the source give for `CC(=O)O[C@H]1C(=O)[C@]2(C)[C@@H](OC(=O)/C=C/c3ccc(C(=O)Oc4ccccc4)cc3)C[C@H]3OC[C@@]3(OC(C)=O)[C@H]2[C@H](OC(=O)c2ccccc2)[C@]2(O)C[C@H](OC(C)=O)C(C)=C1C2(C)C` here?
**A.** 27%

**Q.** With `CC(=O)O[C@H]1C[C@@]2(O)[C@@H](OC(=O)c3ccccc3)[C@@H]3[C@]4(OC(C)=O)CO[C@@H]4C[C@H](OC(C)=O)[C@@]3(C)C(=O)[C@H](OC(=O)/C=C/c3ccc(Sc4ccccc4)cc3)C(=C1C)C2(C)C` as the compound, how does the Reduction read?
**A.** 28%

**Q.** `CC(=O)O[C@H]1C(=O)[C@]2(C)[C@@H](OC(=O)/C=C/c3ccc(OC(=O)c4cccc5ccccc45)cc3)C[C@H]3OC[C@@]3(OC(C)=O)[C@H]2[C@H](OC(=O)c2ccccc2)[C@]2(O)C[C@H](OC(C)=O)C(C)=C1C2(C)C` was tested. Which Reduction did it give?
**A.** 89%

**Q.** With `CCC(=O)O[C@H]1C(=O)[C@]2(C)[C@@H](OC(=O)/C=C/c3ccc(C(=O)c4ccccc4)cc3)C[C@H]3OC[C@@]3(OC(C)=O)[C@H]2[C@H](OC(=O)c2ccccc2)[C@]2(O)C[C@H](OC(C)=O)C(C)=C1C2(C)C` as the compound, how does the Reduction read?
**A.** 88%

**Q.** How did the Reduction turn out when `CC(=O)O[C@H]1C(=O)[C@]2(C)[C@@H](OC(=O)/C=C/c3ccc(OC(=O)c4ccc(O)cc4)cc3)C[C@H]3OC[C@@]3(OC(C)=O)[C@H]2[C@H](OC(=O)c2ccccc2)[C@]2(O)C[C@H](OC(C)=O)C(C)=C1C2(C)C` was run?
**A.** 24%

**Q.** With `COc1ccc(C(=O)Oc2ccc(/C=C/C(=O)O[C@H]3C[C@H]4OC[C@@]4(OC(C)=O)[C@H]4[C@H](OC(=O)c5ccccc5)[C@]56OC(=O)O[C@H]5[C@H](OC(C)=O)C(C)=C([C@@H](OC(C)=O)C(=O)[C@]34C)C6(C)C)cc2)cc1` as the compound, how does the Reduction read?
**A.** 69%

**Q.** For `CC(=O)O[C@H]1C(=O)[C@]2(C)[C@@H](OC(=O)c3ccnc4ccccc34)C[C@H]3OC[C@@]3(OC(C)=O)[C@H]2[C@H](OC(=O)c2ccccc2)[C@]2(O)C[C@H](OC(C)=O)C(C)=C1C2(C)C`, which Reduction is on record?
**A.** 36%

**Q.** For `COc1cccc(C(=O)Oc2ccc(/C=C/C(=O)O[C@H]3C[C@H]4OC[C@@]4(OC(C)=O)[C@H]4[C@H](OC(=O)c5ccccc5)[C@]5(O)C[C@H](OC(C)=O)C(C)=C([C@@H](OC(C)=O)C(=O)[C@]34C)C5(C)C)cc2)c1`, which Reduction is on record?
**A.** 34%

**Q.** How did the Reduction turn out when `CC(=O)O[C@H]1C(=O)[C@]2(C)[C@@H](OC(=O)/C=C/c3cccc(NC(=O)c4ccccc4)c3)C[C@H]3OC[C@@]3(OC(C)=O)[C@H]2[C@H](OC(=O)c2ccccc2)[C@]23OC(=O)O[C@H]2[C@H](OC(C)=O)C(C)=C1C3(C)C` was run?
**A.** 91%

**Q.** How did the Reduction turn out when `CC(=O)O[C@H]1C(=O)[C@]2(C)[C@@H](OC(=O)/C=C/c3ccc(C(=O)c4cc(C(F)(F)F)cc(C(F)(F)F)c4)cc3)C[C@H]3OC[C@@]3(OC(C)=O)[C@H]2[C@H](OC(=O)c2ccccc2)[C@]2(O)C[C@H](OC(C)=O)C(C)=C1C2(C)C` was run?
**A.** 36%

**Q.** `CC(=O)O[C@H]1C(=O)[C@]2(C)[C@@H](OC(=O)/C=C/c3ccc(OC(=O)c4ccccc4)cc3)C[C@H]3OC[C@@]3(OC(C)=O)[C@H]2[C@H](OC(=O)c2ccccc2)[C@]23OC(=O)O[C@H]2[C@H](OC(C)=O)C(C)=C1C3(C)C` was tested. Which Reduction did it give?
**A.** 95%
